Measurements published in ChEMBL document CHEMBL1201862, “PubChem BioAssay data set” (2004).
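Exposure lasted 48 hours, with cells grown in 96-well plates and compounds tested at five concentrations. Here, GI50 denotes the concentration required for 50% inhibition of growth.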 Active and inactive are the calls of the source. Rule as the data show it: active = GI50 up to about 1.1 µM and inactive = higher.

How the values were obtained:
Experiment in all cases: NCI anticancer screen, dose series, 48 h
786-0 = tested on: 786-0
A498 = tested on: A498
A549 = tested on: A549
ACHN = tested on: ACHN
BT-549 = tested on: BT-549
CAKI-1 = tested on: CAKI-1
COLO 205 = tested on: COLO 205
DU-145 = tested on: DU-145
EKVX = tested on: EKVX
HCC 2998 = tested on: HCC 2998
HCT-116 = tested on: HCT-116
HCT-15 = tested on: HCT-15
HL-60 = tested on: HL-60
HOP-62 = tested on: HOP-62
HOP-92 = tested on: HOP-92
HT-29 = tested on: HT-29
Hs-578T = tested on: Hs-578T
IGROV-1 = tested on: IGROV-1
K562 = tested on: K562
KM12 = tested on: KM12
LOX IMVI = tested on: LOX IMVI
M14 = tested on: M14
MCF7 = tested on: MCF7
MDA-MB-231 = tested on: MDA-MB-231
MDA-MB-435 = tested on: MDA-MB-435
MDA-N = tested on: MDA-N
MOLT-4 = tested on: MOLT-4
Malme-3M = tested on: Malme-3M
NCI-H226 = tested on: NCI-H226
NCI-H23 = tested on: NCI-H23
NCI-H460 = tested on: NCI-H460
NCI-H522 = tested on: NCI-H522
NCI/ADR-RES = tested on: NCI/ADR-RES
OVCAR-3 = tested on: OVCAR-3
OVCAR-4 = tested on: OVCAR-4
OVCAR-5 = tested on: OVCAR-5
OVCAR-8 = tested on: OVCAR-8
PC-3 = tested on: PC-3
RPMI-8226 = tested on: RPMI-8226
RXF 393 = tested on: RXF 393
SF-268 = tested on: SF-268
SF-295 = tested on: SF-295
SF-539 = tested on: SF-539
SK-MEL-28 = tested on: SK-MEL-28
SK-MEL-2 = tested on: SK-MEL-2
SK-MEL-5 = tested on: SK-MEL-5
SK-OV-3 = tested on: SK-OV-3
SN12C = tested on: SN12C
SNB-19 = tested on: SNB-19
SNB-75 = tested on: SNB-75
SR = tested on: SR
SW-620 = tested on: SW-620
T47D = tested on: T47D
TK-10 = tested on: TK-10
U-251 = tested on: U-251
UACC-257 = tested on: UACC-257
UACC-62 = tested on: UACC-62
UO-31 = tested on: UO-31
CCRF-CEM = tested on: CCRF-CEM

`CC(Oc1ccccc1Cl)C(=O)NN1C(=O)CC(=O)N(c2ccccc2)C1=S` (stereo unspecified) was tested, and the GI50 (786-0) was 94.8 µM (inactive), the GI50 (A498) was 22.3 µM (inactive) and the GI50 (A549) was 41.1 µM (inactive). For the same compound, the GI50 (ACHN) was 38.3 µM (inactive), the GI50 (BT-549) was 54.1 µM (inactive) and the GI50 (CAKI-1) was 41.2 µM (inactive). For the same compound, the GI50 (COLO 205) was 32.2 µM (inactive), the GI50 (DU-145) was 42.9 µM (inactive) and the GI50 (EKVX) was 57.1 µM (inactive). For the same compound, the GI50 (HCC 2998) was 82.2 µM (inactive), the GI50 (HCT-116) was 34.9 µM (inactive) and the GI50 (HCT-15) was 38 µM. For the same compound, the GI50 (HL-60) was 18.7 µM (inactive), the GI50 (HOP-62) was 46.7 µM (inactive) and the GI50 (HOP-92) was 20.4 µM (inactive). For the same compound, the GI50 (HT-29) was 54.5 µM (inactive), the GI50 (Hs-578T) was > 100 µM (inactive) and the GI50 (IGROV-1) was 52.6 µM (inactive). For the same compound, the GI50 (K562) was 33.7 µM (inactive), the GI50 (KM12) was 60.1 µM (inactive) and the GI50 (LOX IMVI) was 38.4 µM (inactive). For the same compound, the GI50 (M14) was 59 µM (inactive), the GI50 (MCF7) was 31 µM (inactive) and the GI50 (MDA-MB-231) was 42.7 µM (inactive). The GI50 (MDA-MB-435) was 42.6 µM (inactive), the GI50 (MDA-N) was 82.2 µM (inactive) and the GI50 (MOLT-4) was 30 µM (inactive). For the same compound, the GI50 (Malme-3M) was > 100 µM (inactive), the GI50 (NCI-H226) was 38.6 µM (inactive) and the GI50 (NCI-H23) was 38.1 µM (inactive). For the same compound, the GI50 (NCI-H460) was 44.2 µM (inactive), the GI50 (NCI-H522) was 37 µM (inactive) and the GI50 (NCI/ADR-RES) was 38.5 µM (inactive). The GI50 (OVCAR-3) was 38 µM (inactive), the GI50 (OVCAR-4) was 54 µM (inactive) and the GI50 (OVCAR-5) was > 100 µM (inactive). The GI50 (OVCAR-8) was 41.4 µM (inactive), the GI50 (PC-3) was 40.8 µM (inactive) and the GI50 (RPMI-8226) was 47.8 µM (inactive). The GI50 (RXF 393) was 32.1 µM (inactive), the GI50 (SF-268) was 86.7 µM (inactive) and the GI50 (SF-295) was 39.1 µM (inactive). For the same compound, the GI50 (SF-539) was 66.7 µM (inactive), the GI50 (SK-MEL-28) was 88.3 µM (inactive) and the GI50 (SK-MEL-2) was 34.4 µM (inactive). The GI50 (SK-MEL-5) was 42.8 µM (inactive), the GI50 (SK-OV-3) was 51.5 µM (inactive) and the GI50 (SN12C) was > 100 µM (inactive). For the same compound, the GI50 (SNB-19) was 71.1 µM (inactive), the GI50 (SNB-75) was 49.1 µM (inactive) and the GI50 (SR) was 33.3 µM (inactive). The GI50 (SW-620) was 55.7 µM (inactive), the GI50 (T47D) was 31.9 µM (inactive) and the GI50 (TK-10) was 74.8 µM (inactive). For the same compound, the GI50 (U-251) was 41 µM (inactive), the GI50 (UACC-257) was 55.2 µM (inactive) and the GI50 (UACC-62) was 33.3 µM (inactive). For the same compound, the GI50 (UO-31) was 53 µM (inactive).
With `CC(C)/C(Cl)=N/OC(=O)Nc1cccc(C(F)(F)F)c1` the GI50 (786-0) was 2.52 µM (inactive), the GI50 (A498) was 18.7 µM (inactive) and the GI50 (A549) was 19.3 µM (inactive). The GI50 (ACHN) was 1.69 µM (inactive), the GI50 (BT-549) was 3.64 µM (inactive) and the GI50 (CAKI-1) was 1.75 µM (inactive). The GI50 (CCRF-CEM) was 0.532 µM (active), the GI50 (COLO 205) was 2.07 µM (inactive) and the GI50 (DU-145) was 17.3 µM (inactive). For the same compound, the GI50 (EKVX) was 2.61 µM (inactive), the GI50 (HCC 2998) was 15.8 µM (inactive) and the GI50 (HCT-116) was 8.2 µM (inactive). The GI50 (HCT-15) was 1.82 µM, the GI50 (HL-60) was 0.778 µM (active) and the GI50 (HOP-62) was 18.1 µM (inactive). For the same compound, the GI50 (HOP-92) was 1.75 µM (inactive), the GI50 (HT-29) was 4.98 µM (inactive) and the GI50 (Hs-578T) was 9.55 µM (inactive). For the same compound, the GI50 (IGROV-1) was 13.4 µM (inactive), the GI50 (K562) was 1.54 µM (inactive) and the GI50 (KM12) was 15.3 µM (inactive). The GI50 (LOX IMVI) was 2.51 µM (inactive), the GI50 (M14) was 3.52 µM (inactive) and the GI50 (MCF7) was 5.35 µM (inactive). The GI50 (MDA-MB-231) was 6.68 µM (inactive), the GI50 (MDA-MB-435) was 11.8 µM (inactive) and the GI50 (MDA-N) was 10.6 µM (inactive). The GI50 (MOLT-4) was 1.67 µM (inactive), the GI50 (Malme-3M) was 1.6 µM (inactive) and the GI50 (NCI-H226) was 12.5 µM (inactive). The GI50 (NCI-H23) was 14.5 µM (inactive), the GI50 (NCI-H460) was 17.8 µM (inactive) and the GI50 (NCI-H522) was 0.14 µM (active). For the same compound, the GI50 (NCI/ADR-RES) was 5.5 µM (inactive), the GI50 (OVCAR-3) was 3.84 µM (inactive) and the GI50 (OVCAR-4) was 7.05 µM (inactive). The GI50 (OVCAR-5) was 18.9 µM (inactive), the GI50 (OVCAR-8) was 14.5 µM (inactive) and the GI50 (PC-3) was 16.2 µM (inactive). The GI50 (RPMI-8226) was 1.56 µM (inactive), the GI50 (RXF 393) was 5.9 µM (inactive) and the GI50 (SF-268) was 23.1 µM (inactive). The GI50 (SF-295) was 18.3 µM (inactive), the GI50 (SK-MEL-28) was 5.45 µM (inactive) and the GI50 (SK-MEL-2) was 17.8 µM (inactive). For the same compound, the GI50 (SK-MEL-5) was 8.05 µM (inactive), the GI50 (SK-OV-3) was 17.7 µM (inactive) and the GI50 (SN12C) was 7.1 µM (inactive). For the same compound, the GI50 (SNB-19) was 19 µM (inactive), the GI50 (SNB-75) was 5.04 µM (inactive) and the GI50 (SR) was 1.06 µM (active). For the same compound, the GI50 (SW-620) was 1.35 µM (inactive), the GI50 (T47D) was 4.1 µM (inactive) and the GI50 (TK-10) was 3.5 µM (inactive). The GI50 (U-251) was 17 µM (inactive), the GI50 (UACC-257) was 15.4 µM (inactive) and the GI50 (UACC-62) was 13.6 µM (inactive). For the same compound, the GI50 (UO-31) was 7.96 µM (inactive).
